The numbers were not newly measured in patent US20170326154A1, “Pre-Operative Composition for Sedation or Analgesia” (priority 2016, published 2017), which cites them from elsewhere.

The conditions of data set [1]: basic drug, nitrogen atom in the imidazole ring.

Each structure is given as a SMILES string. Where two headings read alike, the source gives them in different places.

Consider `Cc1ncc2n1-c1ccc(Cl)cc1C(c1ccccc1F)=NC2` [Midazolam, 8-chloro-6-(2′-fluorophenyl)-1-methyl-4H-imidazo[1,5-a][1,4]-benzodiazepine], for which the “adequate sedation within (time)” value is 10 to 15 min (intranasal administration) and 10 to 20 min (oral administration). For the same molecule, the pKa value in data set [1] is 5.5 and 6.2.
